These are literature values, as cited in US9072916B2, “Aqueous anti-perspiration formulation” (BEIERSDORF AG, priority 2004, dated 2015).

For this series the following is noted: in water, alcohol, ether and 2-propanol.

On to `O=C(O)C(O)c1ccccc1` (stereo not shown) [Mandelic acid, mandelic acid], for which the solubility result is listed as “readily soluble”.
